# Experimental data as given in ChEMBL document CHEMBL3745623, “Polyphenols isolated from leaves of Vitis thunbergii var. taiwaniana regulate APP related pathway” (Bioorg Med Chem Lett, 2016).
# Activity calls are given as the source filed them. The rule behind the calls is not given here.
# Key:
# N2a [1] = test: Upregulation of soluble APP alpha protein level in mouse N2A cells expressing human APP695 at 8 uM after 10 hrs by Western blot analysis; format: functional, cell-based
# N2a [2] = test: Inhibition of gamma-secretase in mouse N2A cells transfected with NotchdeltaE assessed as reduction in Notch intracellular domain level at 8 uM after 10 hrs by densitometry analysis; format: cell-based
# N2a [3] = test: Decrease in amyloid beta40 level in mouse N2A cells expressing human APP695 after 10 hrs by sandwich ELISA; format: functional, cell-based
# [4] = molecular target: Beta-secretase 1 (Mus musculus) (UniProt P56818); test: Inhibition of BACE1 in mouse N2A cells expressing human APP695 assessed as decrease in soluble APP beta protein level at 8 uM after 10 hrs by Western blot analysis; format: cell-based
# Sequence of Beta-secretase 1 (Mus musculus) (P56818 whole entry): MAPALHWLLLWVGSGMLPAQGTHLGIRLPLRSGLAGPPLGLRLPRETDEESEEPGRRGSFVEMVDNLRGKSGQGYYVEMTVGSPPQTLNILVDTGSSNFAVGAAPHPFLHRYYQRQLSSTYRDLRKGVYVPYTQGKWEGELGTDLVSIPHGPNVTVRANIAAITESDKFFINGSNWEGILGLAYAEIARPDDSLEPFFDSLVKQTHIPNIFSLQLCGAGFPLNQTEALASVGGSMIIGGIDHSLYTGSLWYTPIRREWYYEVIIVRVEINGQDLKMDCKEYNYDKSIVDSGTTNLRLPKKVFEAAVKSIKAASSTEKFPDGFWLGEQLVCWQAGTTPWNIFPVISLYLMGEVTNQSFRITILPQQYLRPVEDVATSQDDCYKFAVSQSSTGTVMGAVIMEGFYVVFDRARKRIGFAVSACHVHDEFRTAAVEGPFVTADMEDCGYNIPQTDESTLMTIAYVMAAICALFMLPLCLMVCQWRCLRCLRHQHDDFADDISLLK
# N2a [5] = test: Cytotoxicity against mouse N2A cells expressing human APP695 assessed as reduction in cell viability up to 8 uM after 10 hrs by CCK-8 assay; format: cell-based
# N2a [6] = test: Downregulation of N-terminal fragment of presenilin1 level in mouse N2A cells at 8 uM after 10 hrs by Western blot analysis; format: functional, cell-based
# [7] = molecular target: Disintegrin and metalloproteinase domain-containing protein 17 (Homo sapiens) (UniProt P78536); test: Activation of TACE in human SH-SY5Y cells at 8 uM after 10 hrs by fluorescence assay; format: cell-based
# Sequence of Disintegrin and metalloproteinase domain-containing protein 17 (Homo sapiens) (P78536 whole entry, the tested form may be a part): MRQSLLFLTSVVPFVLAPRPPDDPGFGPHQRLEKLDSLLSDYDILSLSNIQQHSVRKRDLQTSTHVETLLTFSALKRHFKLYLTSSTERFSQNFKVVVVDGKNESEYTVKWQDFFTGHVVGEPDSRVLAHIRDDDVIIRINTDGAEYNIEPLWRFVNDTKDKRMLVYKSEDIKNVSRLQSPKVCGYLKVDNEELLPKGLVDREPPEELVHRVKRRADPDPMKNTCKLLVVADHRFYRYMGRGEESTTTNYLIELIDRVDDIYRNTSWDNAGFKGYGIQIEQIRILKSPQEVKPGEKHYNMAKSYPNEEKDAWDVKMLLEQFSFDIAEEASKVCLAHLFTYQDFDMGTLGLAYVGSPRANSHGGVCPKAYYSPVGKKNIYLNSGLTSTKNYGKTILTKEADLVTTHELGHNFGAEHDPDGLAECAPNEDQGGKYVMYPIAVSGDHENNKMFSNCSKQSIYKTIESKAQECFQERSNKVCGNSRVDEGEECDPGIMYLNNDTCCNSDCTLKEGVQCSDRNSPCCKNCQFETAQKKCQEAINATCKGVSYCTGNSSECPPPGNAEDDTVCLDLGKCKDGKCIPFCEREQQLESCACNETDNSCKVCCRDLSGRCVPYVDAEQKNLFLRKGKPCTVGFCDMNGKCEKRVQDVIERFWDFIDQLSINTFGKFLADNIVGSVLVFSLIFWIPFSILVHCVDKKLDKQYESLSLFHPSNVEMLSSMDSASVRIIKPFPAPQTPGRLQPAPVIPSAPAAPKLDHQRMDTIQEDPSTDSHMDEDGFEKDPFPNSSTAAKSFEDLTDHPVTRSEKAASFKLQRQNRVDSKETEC
# N2a [8] = test: Effect on ADAM17 level in mouse N2A cells expressing human APP695 at 8 uM after 10 hrs by Western blot analysis; format: functional, cell-based
# [9] = molecular target: Beta-secretase 1 (Homo sapiens) (UniProt P56817); test: Inhibition of BACE1 in human SH-SY5Y cells at 8 uM after 10 hrs by fluorescence plate reader analysis; format: cell-based
# Sequence of Beta-secretase 1 (Homo sapiens) (P56817 whole entry): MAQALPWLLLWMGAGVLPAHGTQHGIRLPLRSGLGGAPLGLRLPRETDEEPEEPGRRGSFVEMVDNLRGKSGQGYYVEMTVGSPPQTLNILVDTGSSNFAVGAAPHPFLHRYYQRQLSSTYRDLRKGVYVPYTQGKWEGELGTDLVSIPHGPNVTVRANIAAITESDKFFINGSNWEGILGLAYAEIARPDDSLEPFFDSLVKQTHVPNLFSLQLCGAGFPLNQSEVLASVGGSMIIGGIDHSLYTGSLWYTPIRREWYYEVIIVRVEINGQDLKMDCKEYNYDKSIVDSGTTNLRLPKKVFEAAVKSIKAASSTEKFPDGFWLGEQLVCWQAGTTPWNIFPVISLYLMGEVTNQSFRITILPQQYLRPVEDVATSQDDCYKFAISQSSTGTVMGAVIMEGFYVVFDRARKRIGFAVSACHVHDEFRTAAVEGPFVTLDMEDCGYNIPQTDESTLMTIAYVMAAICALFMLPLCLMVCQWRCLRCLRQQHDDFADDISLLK
# N2a [10] = test: Effect on full length APP level in mouse N2A cells expressing human APP695 at 8 uM after 10 hrs by Western blot analysis; format: functional, cell-based
# N2a [11] = test: Effect on BACE1 level in mouse N2A cells expressing human APP695 at 8 uM after 10 hrs by Western blot analysis; format: functional, cell-based
# N2a [12] = test: Effect on immature ADAM10 level in mouse N2A cells expressing human APP695 at 8 uM after 10 hrs by Western blot analysis; format: functional, cell-based
# N2a [13] = test: Decrease in amyloid beta40 level in mouse N2A cells expressing human APP695 at 10 uM after 10 hrs by sandwich ELISA; format: functional, cell-based
# N2a [14] = test: Effect on mature ADAM10 level in mouse N2A cells expressing human APP695 at 8 uM after 10 hrs by Western blot analysis; format: functional, cell-based
# [15] = molecular target: Beta-secretase 1 (Mus musculus) (UniProt P56818); test: Inhibition of BACE1 in mouse N2A cells at 8 uM after 10 hrs by fluorescence plate reader analysis; format: cell-based
# N2a [16] = test: Cytotoxicity against mouse N2A cells expressing human APP695 assessed as reduction in cell viability at 8 to 100 uM after 10 hrs by CCK-8 assay; format: cell-based
# N2a [17] = test: Decrease in amyloid beta42 level in mouse N2A cells expressing human APP695 after 10 hrs by sandwich ELISA; format: functional, cell-based
# N2a [18] = test: Upregulation of soluble APP alpha protein level in mouse N2A cells expressing human APP695 at 10 uM after 10 hrs by Western blot analysis; format: functional, cell-based
# [19] = molecular target: Beta-secretase 1 (Mus musculus) (UniProt P56818); test: Inhibition of BACE1 in mouse N2A cells expressing human APP695 assessed as reduction in amyloid beta40 level after 10 hrs by sandwich ELISA; format: cell-based
# [20] = molecular target: Beta-secretase 1 (Mus musculus) (UniProt P56818); test: Inhibition of BACE1 in mouse N2A cells expressing human APP695 assessed as reduction in amyloid beta40 level at 10 uM after 10 hrs by sandwich ELISA; format: cell-based
# [21] = molecular target: Beta-secretase 1 (Mus musculus) (UniProt P56818); test: Inhibition of BACE1 in mouse N2A cells expressing human APP695 assessed as reduction in amyloid beta42 level after 10 hrs by sandwich ELISA; format: cell-based
# N2a [22] = test: Cytotoxicity against mouse N2A cells expressing human APP695 assessed as reduction in cell viability up to 16 uM after 10 hrs by CCK-8 assay; format: cell-based
# N2a [23] = test: Cytotoxicity against mouse N2A cells expressing human APP695 assessed as reduction in cell viability at 16 to 100 uM after 10 hrs by CCK-8 assay; format: cell-based
inhibition [4],Activity [7],inhibition [9],inhibition [15],SMILES,Activity (N2a [1]),inhibition (N2a [2]),Activity (N2a [3]),Activity (N2a [5]),Activity (N2a [6]),Activity (N2a [8]),Activity (N2a [10]),Activity (N2a [11]),Activity (N2a [12]),Activity (N2a [13]),Activity (N2a [14]),Activity (N2a [16]),Activity (N2a [17]),also measured
inactive,Active,Active,inactive,Oc1ccc([C@H]2c3c(O)cc(O)cc3[C@H]3c4c(cc(O)cc4[C@H]4[C@H](c5ccc(O)cc5)c5cc(O)cc(O)c5[C@H]24)O[C@@H]3c2ccc(O)cc2)cc1,Active,inactive,Dose-dependent effect,Non-toxic,inactive,inactive,inactive,inactive,inactive,Active,inactive,Dose-dependent effect,Dose-dependent effect,–
–,–,–,–,C[C@@H](NC(=O)c1cc(C(=O)N[C@@H](Cc2ccccc2)[C@H](O)CNC2CC2)cc(N(C)S(C)(=O)=O)c1)c1ccccc1,–,–,–,–,–,–,–,–,–,–,–,–,–,Activity (N2a [18]): Active
Active,inactive,Active,Active,Oc1ccc([C@@H]2c3c(O)cc4c5c3[C@@H]([C@@H](c3ccc(O)cc3)c3c(O)cc(O)cc3[C@@H]5[C@@H](c3ccc(O)cc3)O4)[C@H]2c2cc(O)cc(O)c2)cc1 [AMPELOPSIN C],Active,inactive,–,Non-toxic,inactive,inactive,inactive,inactive,inactive,–,inactive,Dose-dependent effect,–,inhibition [19]: Dose-dependent effect; inhibition [20]: Active; inhibition [21]: Dose-dependent effect
inactive,inactive,Active,Active,Oc1ccc([C@@H]2c3c(O)cc(O)cc3[C@@H]3c4c(cc(O)c5c4[C@H]2[C@@H](c2cc(O)cc(O)c2)[C@@H]5c2ccc(O)cc2)O[C@H]3c2ccc(O)cc2)cc1,Active,inactive,Dose-dependent effect,–,inactive,inactive,inactive,inactive,inactive,Active,inactive,–,Dose-dependent effect,Activity (N2a [22]): Non-toxic; Activity (N2a [23]): Dose-dependent effect
